# Results from US6737383B1, “Herbicidal oxadiazolidines” (priority 1999, dated 2004).
# Legend:
# [1] = system: soybean; experiment: Test B pre/postemergence soybean; assay type: in vivo, Glycine max
# Procedure, shortened: (§1)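 Response is a visual 0-to-10 score relative to untreated plants, where 0 means no effect and 10 means complete control, taken twelve to sixteen days after application. Treatments went onto soil at planting and onto foliage of 1- to 4-leaf plants, using a surfactant-containing non-phytotoxic solvent.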
# [2] = system: surinam grass; experiment: Test B pre/postemergence surinam grass; assay type: in vivo, Brachiaria decumbens
# Procedure, shortened: as §1
# [3] = system: giant foxtail; experiment: Test B pre/postemergence giant foxtail; assay type: in vivo, Setaria faberii
# Procedure, shortened: as §1
# [4] = Postemergence, Rate 250 g/ha, scale 0 to 10, 0 is no effect, 10 is complete control
# [5] = Postemergence, Rate 500 g/ha, scale of 0 to 10 where 0 is no effect and 10 is complete control
# [6] = Preemergence, Rate 62 g/ha, scale 0 to 10 (0 no effect, 10 complete control)
# [7] = Preemergence, Rate 125 g/ha, scale of 0 to 10 where 0 is no effect and 10 is complete control
# [8] = Preemergence, Rate 250 g/ha, scale 0 to 10, 0 is no effect, 10 is complete control
# [9] = Preemergence, Rate 500 g/ha, scale 0 to 10, 0 is no effect, 10 is complete control
# [10] = Rate 62 g/ha, Postemergence, scale of 0 to 10 where 0 is no effect and 10 is complete control
# [11] = Postemergence, Rate 125 g/ha, scale 0 to 10, 0 is no effect, 10 is complete control
# [12] = Preemergence, Rate 250 g/ha, scale of 0 to 10 where 0 is no effect and 10 is complete control
# [13] = Preemergence, Rate 500 g/ha, scale of 0 to 10 where 0 is no effect and 10 is complete control
# [14] = Postemergence, Rate 250 g/ha, scale 0 to 10
# [15] = Preemergence, Rate 62 g/ha, scale of 0 to 10 where 0 is no effect and 10 is complete control
# [16] = Rate 62 g/ha, Postemergence, scale 0 to 10 (0 no effect, 10 complete control)
# [17] = Rate 125 g/ha, Postemergence, scale 0 to 10, 0 is no effect, 10 is complete control
# [18] = Postemergence, Rate 250 g/ha, scale 0 to 10, 0 no effect, 10 complete control
# [19] = Postemergence, Rate 125 g/ha, scale of 0 to 10 where 0 is no effect and 10 is complete control
# [20] = Postemergence, Rate 250 g/ha, scale of 0 to 10, 0 is no effect, 10 is complete control
# [21] = Postemergence, Rate 1000 g/ha, scale 0 to 10 (0 no effect, 10 complete control)
# [22] = Preemergence, Rate 250 g/ha, scale 0 to 10 (0 no effect, 10 complete control)
# [23] = Rate 1000 g/ha, Preemergence, scale 0 to 10 (0 no effect, 10 complete control)
structure (smiles),measurement,setting,value
CC(=O)C(C)n1c(=O)on(C(=O)N(c2ccc(F)cc2)C(C)C)c1=O (stereo not drawn) [Compound 400],"Plant response rating, Soybean",[1]; [4],4
same,Soybean plant response rating,[1]; [5],4
same,"Plant response rating, Soybean",[1]; [6],0
same,"Plant response rating, Soybean",[1]; [7],0
same,Soybean plant response rating,[1]; [8],0
same,Soybean plant response rating,[1]; [9],0
same,Soybean plant response rating,[1]; [10],1
same,"Plant response rating, B. signalgrass",[2]; [11],2
same,"Plant response rating, B. signalgrass",[2]; [4],3
same,B. signalgrass plant response rating,[2]; [5],4
same,"Plant response rating, B. signalgrass",[2]; [6],0
same,"Plant response rating, B. signalgrass",[2]; [7],0
same,B. signalgrass plant response rating,[2]; [12],2
same,B. signalgrass plant response rating,[2]; [13],4
same,B. signalgrass plant response rating,[2]; [10],0
same,"Plant response rating, Giant foxtail",[3]; [11],8
same,"Plant response rating, Giant foxtail",[3]; [4],9
same,Giant foxtail plant response rating,[3]; [5],9
same,"Plant response rating, Giant foxtail",[3]; [6],9
same,"Plant response rating, Giant foxtail",[3]; [7],9
same,Giant foxtail plant response rating,[3]; [8],10
same,Giant foxtail plant response rating,[3]; [9],10
same,Giant foxtail plant response rating,[3]; [10],5
C=CC(CC)n1c(=O)on(C(=O)N(c2ccccc2)C(C)C)c1=O (stereo not drawn) [Compound 455],Soybean plant response rating,[1]; [14],4
same,"Plant response rating, Soybean",[1]; [15],0
same,"Plant response rating, Soybean",[1]; [7],0
same,Soybean plant response rating,[1]; [8],0
same,Soybean plant response rating,[1]; [9],2
same,Soybean plant response rating,[1]; [16],1
same,Soybean plant response rating,[1]; [17],2
same,B. signalgrass plant response rating,[2]; [18],1
same,B. signalgrass plant response rating,[2]; [5],5
same,"Plant response rating, B. signalgrass",[2]; [15],0
same,"Plant response rating, B. signalgrass",[2]; [7],3
same,B. signalgrass plant response rating,[2]; [8],9
same,B. signalgrass plant response rating,[2]; [9],9
same,B. signalgrass plant response rating,[2]; [16],0
same,B. signalgrass plant response rating,[2]; [17],0
same,Giant foxtail plant response rating,[3]; [14],7
same,Giant foxtail plant response rating,[3]; [5],9
same,"Plant response rating, Giant foxtail",[3]; [15],10
same,"Plant response rating, Giant foxtail",[3]; [7],10
same,Giant foxtail plant response rating,[3]; [8],10
same,Giant foxtail plant response rating,[3]; [9],10
same,Giant foxtail plant response rating,[3]; [16],7
same,Giant foxtail plant response rating,[3]; [17],7
CC(C)N(C(=O)n1oc(=O)n(C(C)C#N)c1=O)c1ccc(F)cc1F (stereo not drawn) [Compound 432],Soybean plant response rating,[1]; [14],2
same,Soybean plant response rating,[1]; [5],2
same,"Plant response rating, Soybean",[1]; [6],0
same,"Plant response rating, Soybean",[1]; [7],0
same,Soybean plant response rating,[1]; [8],0
same,Soybean plant response rating,[1]; [9],0
same,Soybean plant response rating,[1]; [17],1
same,B. signalgrass plant response rating,[2]; [18],0
same,B. signalgrass plant response rating,[2]; [5],0
same,"Plant response rating, B. signalgrass",[2]; [6],0
same,"Plant response rating, B. signalgrass",[2]; [7],0
same,B. signalgrass plant response rating,[2]; [8],0
same,B. signalgrass plant response rating,[2]; [9],0
same,B. signalgrass plant response rating,[2]; [10],0
same,B. signalgrass plant response rating,[2]; [17],0
same,Giant foxtail plant response rating,[3]; [14],6
same,Giant foxtail plant response rating,[3]; [5],8
same,"Plant response rating, Giant foxtail",[3]; [6],0
same,"Plant response rating, Giant foxtail",[3]; [7],2
same,Giant foxtail plant response rating,[3]; [8],6
same,Giant foxtail plant response rating,[3]; [9],9
same,Giant foxtail plant response rating,[3]; [10],0
same,Giant foxtail plant response rating,[3]; [17],3
CCOC(=O)C=C(Cn1c(=O)on(C(=O)N(c2ccc(F)cc2)C(C)C)c1=O)OCC [Compound 396],"Plant response rating, Soybean",[1]; [4],3
same,Soybean plant response rating,[1]; [5],6
same,"Plant response rating, Soybean",[1]; [6],0
same,"Plant response rating, Soybean",[1]; [7],0
same,Soybean plant response rating,[1]; [8],0
same,Soybean plant response rating,[1]; [9],0
same,Soybean plant response rating,[1]; [10],2
same,"Plant response rating, B. signalgrass",[2]; [11],0
same,"Plant response rating, B. signalgrass",[2]; [4],0
same,B. signalgrass plant response rating,[2]; [5],0
same,"Plant response rating, B. signalgrass",[2]; [6],0
same,"Plant response rating, B. signalgrass",[2]; [7],0
same,B. signalgrass plant response rating,[2]; [12],3
same,B. signalgrass plant response rating,[2]; [13],5
same,B. signalgrass plant response rating,[2]; [10],0
same,"Plant response rating, Giant foxtail",[3]; [11],0
same,"Plant response rating, Giant foxtail",[3]; [4],2
same,Giant foxtail plant response rating,[3]; [5],2
same,"Plant response rating, Giant foxtail",[3]; [6],2
same,"Plant response rating, Giant foxtail",[3]; [7],10
same,Giant foxtail plant response rating,[3]; [8],10
same,Giant foxtail plant response rating,[3]; [9],10
same,Giant foxtail plant response rating,[3]; [10],0
CC(C)N(C(=O)n1oc(=O)n(C(CF)CF)c1=O)c1ccc(Cl)cc1 [Compound 468],Soybean plant response rating,[1]; [14],1
same,"Plant response rating, Soybean",[1]; [15],0
same,"Plant response rating, Soybean",[1]; [7],0
same,Soybean plant response rating,[1]; [8],0
same,Soybean plant response rating,[1]; [9],0
same,Soybean plant response rating,[1]; [16],1
same,Soybean plant response rating,[1]; [17],1
same,B. signalgrass plant response rating,[2]; [18],0
same,B. signalgrass plant response rating,[2]; [5],0
same,"Plant response rating, B. signalgrass",[2]; [15],0
same,"Plant response rating, B. signalgrass",[2]; [7],2
same,B. signalgrass plant response rating,[2]; [8],3
same,B. signalgrass plant response rating,[2]; [9],4
same,B. signalgrass plant response rating,[2]; [16],0
same,B. signalgrass plant response rating,[2]; [17],0
same,Giant foxtail plant response rating,[3]; [14],9
same,Giant foxtail plant response rating,[3]; [5],9
same,"Plant response rating, Giant foxtail",[3]; [15],6
same,"Plant response rating, Giant foxtail",[3]; [7],8
same,Giant foxtail plant response rating,[3]; [8],9
same,Giant foxtail plant response rating,[3]; [9],10
same,Giant foxtail plant response rating,[3]; [16],1
same,Giant foxtail plant response rating,[3]; [17],3
COC(=O)C(C)n1c(=O)on(C(=O)N(c2ccc(Cl)cc2)C(C)C)c1=O (stereo not drawn) [Compound 623],"Plant response rating, Soybean",[1]; [19],0
same,Soybean plant response rating,[1]; [20],0
same,Soybean plant response rating,[1]; [21],3
same,Soybean plant response rating,[1]; [7],0
same,"Plant response rating, Soybean",[1]; [22],0
same,"Plant response rating, Soybean",[1]; [13],0
same,"Plant response rating, Soybean",[1]; [23],0
same,"Plant response rating, B. signalgrass",[2]; [19],0
same,B. signalgrass plant response rating,[2]; [20],0
same,"Plant response rating, B. signalgrass",[2]; [5],0
same,B. signalgrass plant response rating,[2]; [21],0
same,B. signalgrass plant response rating,[2]; [7],0
same,"Plant response rating, B. signalgrass",[2]; [22],0
same,"Plant response rating, B. signalgrass",[2]; [13],2
same,"Plant response rating, B. signalgrass",[2]; [23],4
same,"Plant response rating, Giant foxtail",[3]; [19],0
same,Giant foxtail plant response rating,[3]; [20],0
same,"Plant response rating, Giant foxtail",[3]; [5],0
same,Giant foxtail plant response rating,[3]; [21],2
same,Giant foxtail plant response rating,[3]; [7],7
same,"Plant response rating, Giant foxtail",[3]; [22],8
same,"Plant response rating, Giant foxtail",[3]; [13],9
same,"Plant response rating, Giant foxtail",[3]; [23],9
COC(C)n1c(=O)on(C(=O)N(c2ccccc2)C(C)C)c1=O (stereo not drawn) [Compound 441],Soybean plant response rating,[1]; [14],0
same,Soybean plant response rating,[1]; [5],0
same,"Plant response rating, Soybean",[1]; [15],0
same,"Plant response rating, Soybean",[1]; [7],0
same,Soybean plant response rating,[1]; [8],0
same,Soybean plant response rating,[1]; [9],0
same,Soybean plant response rating,[1]; [16],0
same,Soybean plant response rating,[1]; [17],0
same,B. signalgrass plant response rating,[2]; [18],0
same,B. signalgrass plant response rating,[2]; [5],0
same,"Plant response rating, B. signalgrass",[2]; [15],0
same,"Plant response rating, B. signalgrass",[2]; [7],0
same,B. signalgrass plant response rating,[2]; [8],0
same,B. signalgrass plant response rating,[2]; [9],0
same,B. signalgrass plant response rating,[2]; [16],0
same,B. signalgrass plant response rating,[2]; [17],0
same,Giant foxtail plant response rating,[3]; [14],0
same,Giant foxtail plant response rating,[3]; [5],0
same,"Plant response rating, Giant foxtail",[3]; [15],0
same,"Plant response rating, Giant foxtail",[3]; [7],0
same,Giant foxtail plant response rating,[3]; [8],0
same,Giant foxtail plant response rating,[3]; [9],0
same,Giant foxtail plant response rating,[3]; [16],0
same,Giant foxtail plant response rating,[3]; [17],0
